Experimental data taken from patent publication US10807957B2, “Tetradentate chelating monoquinoline derivative, manufacturing method thereof, and application of same as metal ion regulator for neurodegenerative disease” (GUANGDONG UNIVERSITY OF TECHNOLOGY, priority 2016, dated 2020).

Test: Affinity constants for Cu2+ by competitive chelation with UV/Vis monitoring
Format: binding
Conditions: Cu2+ versus Zn2+, pH 7.4
Protocol: Estimation of affinity constants of compounds of general formula (I) with metal ions: […]
Affinity Constants for Cu^2:
The following mother solutions were prepared: (A) ligand L=TDMQ-n, 300 μM in 20 mM Tris.HCl pH 7.4, 150 mM NaCl; (B) Competing ligands (namely NTA, EDTA, EDDA, EGTA, or CDTA), 300 μM in 20 mM Tris.HCl pH 7.4, 150 mM NaCl; (C) CuCl2, 15 mM in H2O. In the UV/Vis cuvette, 100 μL of (A), 100 μL of (B), 1800 μL of 20 mM Tris.HCl pH 7.4, 150 mM NaCl, and 2 μL of (C) were added in that order. The final concentrations of L, Competing ligand (LC), and Cu^2+ were 15 μM.
The spectrum of the ligand L (2 μL of H2O instead of 2 μL of (C)) was recorded according to above conditions; and the spectrum of [Cu^2+−L] (100 μL of 20 mM Tris.HCl pH 7.4, 150 mM NaCl, instead of 100 μL of (B)) was recorded according to above conditions. All ligands and complexes studied followed the Beer-Lambert law in the experimental conditions used.
The equations of complexation are as follows: […]
It can be deduced that at the equilibrium:
UV/Vis monitoring at 383 nm allowed to determine the absorbance of the competitive chelation mixture (Amix), the absorbance of L in the absence of Cu^2+ (AL), and the absorbance of CuL in the absence of competing ligand (ACu-L). The proportion of Cu^2+ chelated by L was calculated as x=(AL-Amix)/(AL-ACu-L). Experiments were performed in triplicate.

Compound	difference between binding constants for copper and zinc
CN(C)CCCNCc1ccc2c(Cl)cc(Cl)c(N)c2n1 [TDMQ-19, N^1-((8-amino-5,7-dichloroquinolin-2-yl)methyl)-N^3,N3-dimehypropane-1,3-diamine]	10 orders of magnitude
CN(C)CCNCCc1ccc2c(Cl)cc(Cl)c(N)c2n1 [TDMQ-20, N^1-(2-(8-amino-5,7-dichloroquinolin-2-yl)ethyl)-N^2,N^2-dimethylethane-1,2-diamine]	12 orders of magnitude
